PubChem BioAssay AID248 (DTP/NCI, 2004)
Where “and” joins values, the source holds several entries; their conditions need not be identical. Equal entries are not always repeated. Toxic doses and inconclusive results are not listed. Rule as the data show it: active = T/C of 150% or more; inactive = T/C below 125%.

System: L1210 leukemia ip in BDF1 mice, survival T/C
Experiment: NCI In Vivo Anticancer Drug Screen. Data for tumor model L1210 Leukemia (intraperitoneal) in B6D2F1 (BDF1) mice
Details: endpoint: mean survival time, higher = longer survival
Method in brief: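 Each compound was tested against a transplantable tumor grown in mice. The endpoint was survival, with treated animals benchmarked against vehicle controls as a simple ratio.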

[1] = dose: 12.5 mg/kg/injection, schedule: Q01DX009 (ip), vehicle: saline
[2] = dose: 25.0 mg/kg/injection, schedule: Q01DX009 (ip), vehicle: saline
[3] = dose: 50.0 mg/kg/injection, schedule: Q01DX009 (ip), vehicle: saline
[4] = dose: 100.0 mg/kg/injection, schedule: Q01DX009 (ip), vehicle: saline
[5] = dose: 100.0 mg/kg/injection, schedule: Q01DX001 (ip), vehicle: carboxymethylcellulose (CMC)
[6] = dose: 200.0 mg/kg/injection, schedule: Q01DX001 (ip), vehicle: carboxymethylcellulose (CMC)
[7] = dose: 400.0 mg/kg/injection, schedule: Q01DX001 (ip), vehicle: carboxymethylcellulose (CMC)
[8] = dose: 100.0 mg/kg/injection, schedule: Q01DX009 (ip), vehicle: Klucel (hydroxypropylcellulose) (HPC)
[9] = dose: 200.0 mg/kg/injection, schedule: Q01DX009 (ip), vehicle: Klucel (hydroxypropylcellulose) (HPC)
[10] = dose: 100.0 mg/kg/injection, schedule: Q04DX003 (ip), vehicle: Klucel (hydroxypropylcellulose) (HPC)
[11] = dose: 200.0 mg/kg/injection, schedule: Q04DX003 (ip), vehicle: Klucel (hydroxypropylcellulose) (HPC)
[12] = dose: 400.0 mg/kg/injection, schedule: Q04DX003 (ip), vehicle: Klucel (hydroxypropylcellulose) (HPC)
[13] = dose: 100.0 mg/kg/injection, schedule: Q04DX003 (ip), vehicle: saline
[14] = dose: 200.0 mg/kg/injection, schedule: Q04DX003 (ip), vehicle: saline
[15] = dose: 100.0 mg/kg/injection, schedule: Q01DX001 (ip), vehicle: saline
[16] = dose: 200.0 mg/kg/injection, schedule: Q01DX001 (ip), vehicle: saline
[17] = dose: 400.0 mg/kg/injection, schedule: Q01DX001 (ip), vehicle: saline
[18] = dose: 400.0 mg/kg/injection, schedule: Q04DX003 (ip), vehicle: saline
[19] = dose: 200.0 mg/kg/injection, schedule: Q01DX009 (ip), vehicle: saline

Measured: T/C

O=C1C(Br)CS(=O)(=O)CC1Br (stereo not drawn)
inactive: dose: 6.25 mg/kg/injection, schedule: Q01DX009 (ip), vehicle: saline 96 % of control | dose: 8.75 mg/kg/injection, schedule: Q01DX009 (ip), vehicle: saline 106 % of control | [1] 86 % of control | dose: 12.5 mg/kg/injection, schedule: Q04DX003 (ip), vehicle: Klucel (hydroxypropylcellulose) (HPC) 96 % of control | dose: 15.0 mg/kg/injection, schedule: Q01DX001 (ip), vehicle: carboxymethylcellulose (CMC) 102 % of control | dose: 17.5 mg/kg/injection, schedule: Q01DX009 (ip), vehicle: saline 98 % of control | [2] 91 % of control | dose: 25.0 mg/kg/injection, schedule: Q04DX003 (ip), vehicle: Klucel (hydroxypropylcellulose) (HPC) 94 % of control | dose: 30.0 mg/kg/injection, schedule: Q01DX001 (ip), vehicle: carboxymethylcellulose (CMC) 106 % of control

O=C1OCC/C1=C1/CCOC1
inactive: [3] 91 % of control | [4] 102 % of control

O=C1c2cc(Br)ccc2-c2cc(Br)c([N+](=O)[O-])c(Br)c21
inactive: [5] 106 % of control | [6] 103 % of control | [7] 97 % of control

CC1(C)OC2OC(COC(=O)c3ccc([N+](=O)[O-])cc3)C(OC(=O)c3ccc([N+](=O)[O-])cc3)C2O1 (stereo not drawn)
inactive: dose: 100.0 mg/kg/injection, schedule: Q01DX001 (ip), vehicle: steriod suspending solution 87 % of control | dose: 200.0 mg/kg/injection, schedule: Q01DX001 (ip), vehicle: steriod suspending solution 95 % of control | dose: 400.0 mg/kg/injection, schedule: Q01DX001 (ip), vehicle: steriod suspending solution 104 % of control

O=C1c2ccccc2C(=O)c2ccccc21
inactive: [8] 102 % of control | [9] 88 % of control | dose: 400.0 mg/kg/injection, schedule: Q01DX009 (ip), vehicle: Klucel (hydroxypropylcellulose) (HPC) 100 % of control

COc1cc2cc3c4cc(OC)c(OC)cc4cc[n+]3c(/C=C/c3cccc(O)c3)c2cc1OC
inactive: dose: 25.0 mg/kg/injection, schedule: Q04DX002 (ip), vehicle: carboxymethylcellulose (CMC) 97 % of control and 108 % of control | dose: 50.0 mg/kg/injection, schedule: Q04DX002 (ip), vehicle: carboxymethylcellulose (CMC) 101 % of control | [5] 102 % of control and 110 % of control | [6] 110 % of control and 119 % of control | [7] 98 % of control and 114 % of control | dose: 400.0 mg/kg/injection, schedule: Q04DX002 (ip), vehicle: carboxymethylcellulose (CMC) 105 % of control and 115 % of control

COc1ccc(Cl)cc1[N+](=O)[O-]
inactive: dose: 200.0 mg/kg/injection, schedule: Q01DX001 (ip), vehicle: Klucel (hydroxypropylcellulose) (HPC) 95 % of control | dose: 400.0 mg/kg/injection, schedule: Q01DX001 (ip), vehicle: Klucel (hydroxypropylcellulose) (HPC) 95 % of control

S=c1n(CN2CCCCC2)c2cncnc2n1CN1CCCCC1
inactive: dose: 75.0 mg/kg/injection, schedule: Q01DX Z (ip), vehicle: carboxymethylcellulose (CMC) 98 % of control | dose: 100.0 mg/kg/injection, schedule: Q01DX Z (ip), vehicle: carboxymethylcellulose (CMC) 109 % of control | dose: 125.0 mg/kg/injection, schedule: Q01DX Z (ip), vehicle: carboxymethylcellulose (CMC) 95 % of control

O=C1CCC(=S)N1c1ccccc1
inactive: [10] 101 % of control | [11] 100 % of control | [12] 95 % of control

CCN(CC)CCNCCN
inactive: [1] 107 % of control | [2] 111 % of control | [3] 101 % of control and 102 % of control | [13] 94 % of control | [14] 96 % of control

O=C(O)C(Cc1ccsc1)C(=O)O
inactive: [15] 101 % of control | [16] 93 % of control

CC(=O)c1ccc2c(c1)Cc1cc(Br)ccc1-2
inactive: [5] 97 % of control | [6] 89 % of control | [7] 97 % of control

CC1CCN(C(=O)Nc2ccccc2)CC1
inactive: dose: 100.0 mg/kg/injection, schedule: Q04DX002 (ip), vehicle: Klucel (hydroxypropylcellulose) (HPC) 98 % of control | dose: 200.0 mg/kg/injection, schedule: Q04DX002 (ip), vehicle: Klucel (hydroxypropylcellulose) (HPC) 117 % of control | dose: 400.0 mg/kg/injection, schedule: Q04DX002 (ip), vehicle: Klucel (hydroxypropylcellulose) (HPC) 103 % of control

COC(=O)c1c[nH]c2cc(OC(C)C)c(OC(C)C)cc2c1=O
inactive: dose: 100.0 mg/kg/injection, schedule: Q01DX001 (ip), vehicle: saline with Tween-80 96 % of control | dose: 200.0 mg/kg/injection, schedule: Q01DX001 (ip), vehicle: saline with Tween-80 91 % of control | dose: 400.0 mg/kg/injection, schedule: Q01DX001 (ip), vehicle: saline with Tween-80 100 % of control

Cc1cc(=O)n(/C=C/C(=O)O)c2ccccc12
inactive: [10] 97 % of control | [11] 112 % of control | [12] 94 % of control

CN(C)S(=O)(=O)c1ccc(NC(=O)OC(c2ccccc2)(c2ccccc2)c2ccccc2)cc1
inactive: [15] 96 % of control | [16] 92 % of control | [17] 96 % of control

Cc1ccc2cccnc2c1
inactive: [5] 93 % of control | [6] 93 % of control | [7] 86 % of control

CCC(=O)OCC1OC(n2cc(F)c(=O)[nH]c2=O)CC1OC(=O)CC (stereo not drawn)
inactive: dose: 50.0 mg/kg/injection, schedule: Q01DX001 (ip), vehicle: saline 101 % of control | dose: 89.0 mg/kg/injection, schedule: Q01DX015 (ip), vehicle: saline 117 % of control | [15] 101 % of control | [13] 104 % of control | [16] 101 % of control | [14] 114 % of control | dose: 264.0 mg/kg/injection, schedule: Q04DX003 (ip), vehicle: saline 111 % of control and 112 % of control | dose: 300.0 mg/kg/injection, schedule: Q01DX015 (ip), vehicle: saline 115 % of control | [17] 113 % of control | [18] 108 % of control

CCOC(=O)c1cc(Cl)cc(C(=O)OCC)n1
inactive: dose: 100.0 mg/kg/injection, schedule: Q01DX009 (ip), vehicle: saline with Tween-80 111 % of control | dose: 200.0 mg/kg/injection, schedule: Q01DX009 (ip), vehicle: saline with Tween-80 107 % of control | dose: 400.0 mg/kg/injection, schedule: Q01DX009 (ip), vehicle: saline with Tween-80 102 % of control

C1=C/C2OC2CCCC/1 (stereo not drawn)
inactive: [3] 96 % of control | [4] 97 % of control | [13] 102 % of control | [19] 102 % of control | [14] 87 % of control | [18] 93 % of control

C=CCNC(=S)Nc1cc(Cl)ccc1C
inactive: [8] 90 % of control | [10] 92 % of control | [9] 86 % of control | [11] 100 % of control | [12] 95 % of control

COc1ccc(NC(=O)COc2cccc(Cl)c2)cc1S(=O)(=O)F
inactive: dose: 25.0 mg/kg/injection, schedule: Q04DX003 (ip), vehicle: gum acacia 98 % of control | dose: 50.0 mg/kg/injection, schedule: Q04DX003 (ip), vehicle: gum acacia 95 % of control | dose: 100.0 mg/kg/injection, schedule: Q04DX003 (ip), vehicle: gum acacia 101 % of control | dose: 200.0 mg/kg/injection, schedule: Q04DX003 (ip), vehicle: gum acacia 95 % of control | dose: 400.0 mg/kg/injection, schedule: Q04DX003 (ip), vehicle: gum acacia 92 % of control

Cc1cc(=O)cc(C)[nH]1
inactive: [15] 90 % of control | [16] 94 % of control | [17] 92 % of control

CNc1ccc(Cl)cc1C
inactive: dose: 100.0 mg/kg/injection, schedule: Q04DX002 (sc), vehicle: olive oil, sesame oil, peanut oil 103 % of control | dose: 200.0 mg/kg/injection, schedule: Q04DX002 (sc), vehicle: olive oil, sesame oil, peanut oil 110 % of control | dose: 400.0 mg/kg/injection, schedule: Q04DX002 (sc), vehicle: olive oil, sesame oil, peanut oil 100 % of control

COCC(CNO)OC(=O)c1ccc(N)cc1 (stereo not drawn)
inactive: dose: 55.0 mg/kg/injection, schedule: Q01DX Z (ip), vehicle: saline 89 % of control | dose: 125.0 mg/kg/injection, schedule: Q01DX Z (ip), vehicle: saline 100 % of control

Nc1nc2c(ncn2C2OC(COP(=O)(O)O)C(O)C2O)c(=O)[nH]1 (stereo not drawn)
inactive: dose: 100.0 mg/kg/injection, schedule: Q01DX005 (ip), vehicle: saline 100 % of control | [4] 101 % of control | dose: 200.0 mg/kg/injection, schedule: Q01DX005 (ip), vehicle: saline 112 % of control | [19] 95 % of control

Nc1cccc(C(F)(F)F)c1
inactive: [2] 103 % of control | [3] 103 % of control | [4] 94 % of control and 88 % of control
